From patent publication US9486506B2 (Novo Nordisk A/S, priority 2011, dated 2016)
Numbered stars: 1 amine (or outer) side, 2 acyl side, 3 side chain; on linkers, the order of the positions; unused ones are H or OH. Side chains are listed from the residue outwards. Peptide text beside a SMILES is read from it. * marks the point of attachment. C18 diacid = O=C(O)CCCCCCCCCCCCCCCCC(=O)*; γGlu = O=C(O)[C@H](CCC(=O)[*:2])N[*:1]; AEEA = NCCOCCOCC(=O)O

Columns and labels:
glucagon receptor = target: T1, glucagon receptor (Homo sapiens, UniProt P47871); assay: Assay (I) Glucagon activity (cAMP biosensor, FLIPR); type: cell-based
T1 construct: expressed in transfected cells
T1 sequence (P47871 26-477): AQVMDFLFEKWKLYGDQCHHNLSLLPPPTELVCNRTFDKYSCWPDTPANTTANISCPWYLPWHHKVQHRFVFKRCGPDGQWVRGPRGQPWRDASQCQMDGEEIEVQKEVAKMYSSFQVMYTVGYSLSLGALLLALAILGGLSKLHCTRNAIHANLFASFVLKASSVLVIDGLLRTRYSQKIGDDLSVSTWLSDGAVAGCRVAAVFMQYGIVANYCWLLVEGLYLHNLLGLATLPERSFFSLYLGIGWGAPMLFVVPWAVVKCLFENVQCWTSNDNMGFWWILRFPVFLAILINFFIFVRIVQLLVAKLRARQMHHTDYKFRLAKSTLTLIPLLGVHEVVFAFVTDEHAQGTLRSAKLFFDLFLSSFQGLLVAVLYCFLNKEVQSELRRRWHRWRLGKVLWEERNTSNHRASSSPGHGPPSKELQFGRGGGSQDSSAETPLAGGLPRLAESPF

[1] = Assay (X) Chemical stability assessment by RP-UPLC; type: physicochemical; conditions: pH 8.15, 14 days at 37° C. vs 5° C., 333 μM

Q: Which EC50 (glucagon receptor) does the source give for `CC(C)C[C@H](NC(=O)[C@H](Cc1c[nH]c2ccccc12)NC(=O)[C@H](CCCCNC(=O)CC[C@H](NC(=O)CC[C@H](NC(=O)COCCOCCNC(=O)COCCOCCNC(=O)CC[C@H](NC(=O)CCCCCCCCCCCCCCCCC(=O)O)C(=O)O)C(=O)O)C(=O)O)NC(=O)[C@@H](NC(=O)[C@H](Cc1ccccc1)NC(=O)[C@H](CC(=O)O)NC(=O)[C@H](CCC(N)=O)NC(=O)[C@H](C)NC(=O)[C@H](CCCNC(=N)N)NC(=O)[C@H](CCCNC(=N)N)NC(=O)[C@@H](NC(=O)[C@H](CCC(=O)O)NC(=O)[C@H](CC(C)C)NC(=O)[C@H](Cc1ccc(O)cc1)NC(=O)[C@H](CCCCN)NC(=O)[C@H](CO)NC(=O)[C@H](Cc1ccc(O)cc1)NC(=O)[C@H](CC(=O)O)NC(=O)[C@H](CO)NC(=O)[C@@H](NC(=O)[C@H](Cc1ccccc1)NC(=O)[C@@H](NC(=O)CNC(=O)[C@H](Cc1c[nH]cn1)NC(=O)[C@H](CO)NC(=O)[C@@H](N)Cc1c[nH]cn1)[C@@H](C)O)[C@@H](C)O)[C@@H](C)O)C(C)C)C(=O)N[C@@H](CC(C)C)C(=O)N[C@@H](CC(N)=O)C(=O)N[C@H](C(=O)O)[C@@H](C)O` [Example 9, N^ε24-[(4S)-4-carboxy-4-[[(4S)-4-carboxy-4-[[2-[2-[2-[[2-[2-[2-[[(4S)-4-carboxy-4-(17-carboxyheptadecanoylamino)butanoyl]amino]ethoxy]ethoxy]acetyl]amino]ethoxy]ethoxy]acetyl]amino]butanoyl]amino]butanoyl]-[His^3,Glu^15,Thr^16,Lys^24,Leu^27]-Glucagon] (H-HSHGTFTSDYSKYLETRRAQDFVK([γGlu-γGlu-AEEA-AEEA-γGlu-C18 diacid])WLLNT-OH) here?
A: 0.036 nM

Q: And the “Chemical stability [Purity loss/14 days 37 C.]” value [1]?
A: 10%

Q: Which EC50 (glucagon receptor) does the source give for `CC(C)C[C@H](NC(=O)[C@H](CC(C)C)NC(=O)[C@H](Cc1c[nH]c2ccccc12)NC(=O)[C@H](CCCCNC(=O)CC[C@H](NC(=O)CC[C@H](NC(=O)COCCOCCNC(=O)COCCOCCNC(=O)CC[C@H](NC(=O)CCCCCCCCCCCCCCCCC(=O)O)C(=O)O)C(=O)O)C(=O)O)NC(=O)[C@@H](NC(=O)[C@H](Cc1ccccc1)NC(=O)[C@H](CC(=O)O)NC(=O)[C@H](CCC(N)=O)NC(=O)[C@H](C)NC(=O)[C@H](CCCNC(=N)N)NC(=O)[C@H](CCCNC(=N)N)NC(=O)[C@H](CC(C)C)NC(=O)[C@H](CC(=O)O)NC(=O)[C@H](CC(C)C)NC(=O)[C@H](Cc1ccc(O)cc1)NC(=O)[C@H](CCCNC(=N)N)NC(=O)[C@H](CO)NC(=O)[C@H](Cc1ccc(O)cc1)NC(=O)[C@H](CC(=O)O)NC(=O)[C@H](CO)NC(=O)[C@@H](NC(=O)[C@H](Cc1ccccc1)NC(=O)[C@@H](NC(=O)CNC(=O)[C@H](CCC(N)=O)NC(=O)[C@H](CO)NC(=O)[C@@H](N)Cc1c[nH]cn1)[C@@H](C)O)[C@@H](C)O)C(C)C)C(=O)NCC(=O)N[C@H](C(=O)O)[C@@H](C)O` [Example 88, N^ε24-[(4S)-4-carboxy-4-[[(4S)-4-carboxy-4-[[2-[2-[2-[[2-[2-[2-[[(4S)-4-carboxy-4-(17-carboxyheptadecanoylamino)butanoyl]amino]ethoxy]ethoxy]acetyl]amino]ethoxy]ethoxy]acetyl]amino]butanoyl]amino]butanoyl]-[Arg12,Leu16,Lys24,Leu27,Gly28]-Glucagon] (H-HSQGTFTSDYSRYLDLRRAQDFVK([γGlu-γGlu-AEEA-AEEA-γGlu-C18 diacid])WLLGT-OH) here?
A: 0.47 nM

Q: What about the “Chemical stability [Purity loss/14 days 37 C.]” value [1] of the same compound?
A: 4.7%

Q: What does the source list for `CC(C)C[C@H](NC(=O)[C@H](CC(=O)O)NC(=O)[C@H](CC(C)C)NC(=O)[C@H](Cc1ccc(O)cc1)NC(=O)[C@H](CCCNC(=N)N)NC(=O)[C@H](CO)NC(=O)[C@H](Cc1ccc(O)cc1)NC(=O)[C@H](CC(=O)O)NC(=O)[C@H](CO)NC(=O)[C@@H](NC(=O)[C@H](Cc1ccccc1)NC(=O)[C@@H](NC(=O)CNC(=O)[C@H](CCC(N)=O)NC(=O)[C@H](CO)NC(=O)[C@@H](N)Cc1c[nH]cn1)[C@@H](C)O)[C@@H](C)O)C(=O)N[C@@H](CCCNC(=N)N)C(=O)N[C@@H](CCCNC(=N)N)C(=O)N[C@@H](C)C(=O)N[C@@H](CCC(N)=O)C(=O)N[C@@H](CC(=O)O)C(=O)N[C@@H](Cc1ccccc1)C(=O)N[C@H](C(=O)N[C@@H](CCCCNC(=O)CC[C@H](NC(=O)CC[C@H](NC(=O)CC[C@H](NC(=O)CCCCCCCCCCCCCCCCC(=O)O)C(=O)O)C(=O)O)C(=O)O)C(=O)N[C@@H](Cc1c[nH]c2ccccc12)C(=O)N[C@@H](CC(C)C)C(=O)N[C@@H](CC(C)C)C(=O)N[C@@H](CO)C(=O)N[C@H](C(=O)O)[C@@H](C)O)C(C)C` [Example 29, N^ε24-[(4S)-4-carboxy-4-[[(4S)-4-carboxy-4-[[(4S)-4-carboxy-4-(17-carboxyheptadecanoylamino)butanoyl]amino]butanoyl]amino]butanoyl]-[Arg^12,Leu^16,Lys^24,Leu^27,Ser^28]-Glucagon] (H-HSQGTFTSDYSRYLDLRRAQDFVK([γGlu-γGlu-γGlu-C18 diacid])WLLST-OH)?
A: EC50 (glucagon receptor): 1.32 nM; Chemical stability [Purity loss/14 days 37 C.] [1]: 2.8%

Q: For `CC(C)C[C@H](NC(=O)[C@H](Cc1c[nH]c2ccccc12)NC(=O)[C@H](CCCCNC(=O)CC[C@H](NC(=O)CC[C@H](NC(=O)COCCOCCNC(=O)COCCOCCNC(=O)CC[C@H](NC(=O)CCCCCCCCCCCCCCCCC(=O)O)C(=O)O)C(=O)O)C(=O)O)NC(=O)[C@@H](NC(=O)[C@H](Cc1ccccc1)NC(=O)[C@H](CC(=O)O)NC(=O)[C@H](CCC(N)=O)NC(=O)[C@H](C)NC(=O)[C@H](CCCNC(=N)N)NC(=O)[C@H](CCCNC(=N)N)NC(=O)[C@@H](NC(=O)[C@H](CC(=O)O)NC(=O)[C@H](CC(C)C)NC(=O)[C@H](Cc1ccc(O)cc1)NC(=O)[C@H](CCCNC(=N)N)NC(=O)[C@H](CO)NC(=O)[C@H](Cc1ccc(O)cc1)NC(=O)[C@H](CC(=O)O)NC(=O)[C@H](CO)NC(=O)[C@@H](NC(=O)[C@H](Cc1ccccc1)NC(=O)[C@@H](NC(=O)CNC(=O)[C@H](CCC(N)=O)NC(=O)[C@H](CO)NC(=O)[C@@H](N)Cc1c[nH]cn1)[C@@H](C)O)[C@@H](C)O)[C@@H](C)O)C(C)C)C(=O)N[C@@H](CC(C)C)C(=O)N[C@@H](CO)C(=O)N[C@H](C(=O)O)[C@@H](C)O` [Example 22, N^ε24-[(4S)-4-carboxy-4-[[(4S)-4-carboxy-4-[[2-[2-[2-[[2-[2-[2-[[(4S)-4-carboxy-4-(17-carboxyheptadecanoylamino)butanoyl]amino]ethoxy]ethoxy]acetyl]amino]ethoxy]ethoxy]acetyl]amino]butanoyl]amino]butanoyl]-[Arg^12,Thr^16,Lys^24,Leu^27,Ser^28]-Glucagon] (H-HSQGTFTSDYSRYLDTRRAQDFVK([γGlu-γGlu-AEEA-AEEA-γGlu-C18 diacid])WLLST-OH), which EC50 (glucagon receptor) is on record?
A: 0.297 nM

Q: What about the “Chemical stability [Purity loss/14 days 37 C.]” value [1] of the same compound?
A: 8.8%
